# Experimental data from US20260001928A1 (CORTERIA PHARMACEUTICALS, priority 2022, published 2026).
# *1 amine or outer side, *2 acyl side, *3 side chain or, on linkers, in order; H or OH if unused. Where a SMILES comes first, the peptide text is derived from it. Side-chain parts run from the residue outwards. [ ]: non-standard residue; d: D form. The star is where a group is joined. C18 diacid = O=C(O)CCCCCCCCCCCCCCCCC(=O)*; C16 diacid = O=C(O)CCCCCCCCCCCCCCC(=O)*; γGlu = O=C(O)[C@H](CCC(=O)[*:2])N[*:1]; NMeI = CC[C@H](C)[C@H](NC)C(=O)O; αMeL = CC(C)C[C@](C)(N)C(=O)O; AEEA = NCCOCCOCC(=O)O; Aib = CC(C)(N)C(=O)O
# Columns and labels:
# [1] = tested on: Sprague Dawley rats; test: Effect on systolic blood pressure, telemetry in Sprague Dawley rats; assay type: in vivo, rat; settings: 0.1 mg/kg SC; for Systolic blood pressure (Mean) % change from baseline, 8 h / Systolic blood pressure (Mean) % change from baseline, 12 h / Systolic blood pressure (Mean) % change from baseline, 24 h: n=2; for Duration of action: last time point with an effect on BP still observed
# How it was run: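 Sprague Dawley rats with abdominal-aorta telemetry catheters, recovered ≥10 days, received 0.1 mg/kg SC of compound or vehicle. Systolic pressure recorded 1 h pre-dose as baseline, then continuously up to 48 hours, expressed as % change from baseline; duration of action is last time point with a BP effect (n=2).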
# [2] = molecular target: T1, human CRF2a receptor (Homo sapiens, UniProt Q13324); test: Activity at human CRF2a receptor, cAMP functional assay in TeloHEAC cells; assay type: cell-based; settings: TeloHEAC cells stably expressing human CRF2a receptor, relative to urocortin 2 (100 nM = 100%)
# T1 construct: expressed in transfected cells; host or cells: TeloHEAC cells
# T1 sequence (Q13324 1-411): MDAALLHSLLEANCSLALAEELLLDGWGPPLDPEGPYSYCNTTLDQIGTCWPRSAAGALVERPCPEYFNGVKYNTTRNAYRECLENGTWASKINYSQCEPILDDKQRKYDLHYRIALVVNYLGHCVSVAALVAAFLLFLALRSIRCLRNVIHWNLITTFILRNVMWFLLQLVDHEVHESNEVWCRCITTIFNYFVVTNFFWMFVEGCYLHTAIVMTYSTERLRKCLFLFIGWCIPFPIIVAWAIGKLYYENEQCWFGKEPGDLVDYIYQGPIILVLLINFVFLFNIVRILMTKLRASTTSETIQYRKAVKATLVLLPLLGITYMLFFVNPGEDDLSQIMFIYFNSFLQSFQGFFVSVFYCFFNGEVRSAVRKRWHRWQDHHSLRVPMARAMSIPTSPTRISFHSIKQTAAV
# How it was run: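 TeloHEAC cells stably expressing human CRF2a (10000 cells/well) were treated with 16-point 1:2 compound dilutions in HBSS/20 mM HEPES with IBMX for 30 min at 37° C. cAMP was read by HTRF (665/620 nm ratio). EC50 was the concentration giving 50% activation, with 100 nM urocortin 2 set as 100%.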
# [3] = molecular target: T2, CFR1R receptor (Homo sapiens, UniProt P34998); test: Activity at anti-target CFR1R receptor, cAMP assay in CRF1R-overexpression CHO-K1 cells; assay type: cell-based; settings: 100% = Sauvagine at 100 nM; for EC50: cAMP
# T2 construct: host or cells: CHO-K1 (clone 2)
# T2 sequence (P34998 24-415): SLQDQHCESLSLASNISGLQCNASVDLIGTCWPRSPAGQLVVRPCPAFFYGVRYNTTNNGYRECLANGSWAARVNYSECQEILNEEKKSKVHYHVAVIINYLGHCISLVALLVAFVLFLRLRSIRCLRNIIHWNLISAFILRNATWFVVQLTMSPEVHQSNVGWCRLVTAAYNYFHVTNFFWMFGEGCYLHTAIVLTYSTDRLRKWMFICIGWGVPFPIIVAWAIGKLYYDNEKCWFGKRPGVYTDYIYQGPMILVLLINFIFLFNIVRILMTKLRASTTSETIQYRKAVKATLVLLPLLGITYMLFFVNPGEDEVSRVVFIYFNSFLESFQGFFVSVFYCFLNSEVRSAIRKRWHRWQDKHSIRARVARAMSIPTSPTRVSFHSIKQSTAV
# How it was run: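 Run as for the TeloHAEC line, except the full-activation control well received Sauvagine (100 nM) and final density was 4000 cells/well. Cells from clone 2 came from frozen aliquots of near-confluent cultures.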
# [4] = Chemical stability in buffer (pH 7.4 / pH 4.5), % purity loss; assay type: physicochemical; settings: 40° C. vs 5° C., 14 or 28 days; for Buffer stability pH 4.5 % purity loss: 100 mM acetate buffer pH 4.5; for Buffer stability pH 7.4 % purity loss: 100 mM phosphate buffer pH 7.4
# Experimental: Solubility and chemical stability were studied in 100 mM phosphate buffer (pH 7.4) and 100 mM acetate buffer (pH 4.5). Test compound powders were dissolved in both buffers at a target concentration of 10 mg/mL and incubated for 1 hour at room temperature. After centrifugation at 2500 rcf for 15 minutes, 10 μL of supernatant was diluted with 190 μL of the incubation buffer and analyzed by LC-UV (Acquity UPLC-DAD, Waters). Solubility was calculated by comparing the peak area of the test compound in the buffer sample with the peak area of the same compound dissolved at 0.5 mg/mL in water:acetonitrile 1:1, 0.1% formic acid.
# From the centrifuged supernatant, two additional 80 μL aliquots were collected and diluted with 160 μL of incubation buffer. One aliquot was stored at 5° C., while the other was stored at 40° C. After 14 or 28 days, the samples were analyzed by LC-UV. Chemical stability was calculated as % loss using the following equations: […]
smiles,measurement,setting,value
CC[C@H](C)[C@H](NC(C)=O)C(=O)N[C@H](C(=O)N[C@@H](CC(C)C)C(=O)N[C@@H](CO)C(=O)N[C@@H](CC(C)C)C(=O)N[C@@H](CC(=O)O)C(=O)N[C@H](C(=O)N1CCC[C@H]1C(=O)N[C@H](C(=O)N[C@@H](CCCCN)C(=O)N[C@@](C)(CC(C)C)C(=O)N[C@@H](CCCCNC(=O)CC[C@H](NC(=O)CCCCCCCCCCCCCCC(=O)O)C(=O)O)C(=O)N[C@@H](CCC(N)=O)C(=O)N[C@H](C(=O)N[C@@H](CC(C)C)C(=O)N[C@@H](CC(C)C)C(=O)N[C@@H](CCCCN)C(=O)N[C@@H](CCC(N)=O)C(=O)N[C@@H](CCC(=O)O)C(=O)N[C@@H](CCCNC(=N)N)C(=O)N[C@@H](CCC(N)=O)C(=O)N[C@@H](CCCCN)C(=O)N[C@@H](CCCCN)C(=O)N[C@@H](CCC(N)=O)C(=O)N[C@@H](CCCNC(=N)N)C(=O)N[C@@H](CCC(=O)O)C(=O)N[C@@H](CCC(N)=O)C(=O)N[C@@H](C)C(=O)N[C@@H](CCC(=O)O)C(=O)N[C@@H](CCCCN)C(=O)N[C@@H](CC(N)=O)C(=O)NC(C)(C)C(=O)N[C@@H](CCC(N)=O)C(=O)N[C@H](C(=O)N[C@@H](CC(C)C)C(=O)N[C@@H](CCC(=O)O)C(=O)N[C@@H](CCC(N)=O)C(=O)N[C@H](C(N)=O)C(C)C)[C@@H](C)CC)[C@@H](C)CC)[C@@H](C)CC)C(C)C)C(C)C [compound 19] (Ac-IVLSLDVPIK[αMeL]K([γGlu-C16 diacid])QILLKQERQKKQREQAEKN[Aib]QILEQV-NH2),"Systolic blood pressure (Mean) % change from baseline, 8 h",[1],−21%
same,"Systolic blood pressure (Mean) % change from baseline, 12 h",[1],0%
same,"Systolic blood pressure (Mean) % change from baseline, 24 h",[1],10%
same,Duration of action,[1],11 h
same,EC50,[2],0.28 nM
same,Emax (% I),[3],6 % I
same,EC50,[3],> 250 nM
same,Buffer stability pH 4.5 % purity loss,[4],0/0 ^ %
same,Buffer stability pH 7.4 % purity loss,[4],0/0 ^ %
CC[C@H](C)[C@H](NC)C(=O)N[C@H](C(=O)N[C@@H](CC(C)C)C(=O)N[C@@H](CO)C(=O)N[C@@H](CC(C)C)C(=O)N[C@@H](CC(=O)O)C(=O)N[C@@H](C(=O)N1CCC[C@H]1C(=O)N[C@H](C(=O)N[C@@H](CCCCN)C(=O)N[C@@H](CC(C)C)C(=O)N[C@@H](CCCCNC(=O)COCCOCCNC(=O)COCCOCCNC(=O)CC[C@H](NC(=O)CCCCCCCCCCCCCCCCC(=O)O)C(=O)O)C(=O)N[C@@H](CCCCN)C(=O)N[C@H](C(=O)N[C@@H](CC(C)C)C(=O)N[C@@H](CC(C)C)C(=O)N[C@@H](CCC(=O)O)C(=O)N[C@@H](CCC(N)=O)C(=O)N[C@@H](CCC(=O)O)C(=O)N[C@@H](CCCCN)C(=O)N[C@@H](CCC(N)=O)C(=O)N[C@@H](CCCCN)C(=O)N[C@@H](CCCCN)C(=O)N[C@@H](CCC(N)=O)C(=O)N[C@@H](CCCNC(=N)N)C(=O)N[C@@H](CCC(=O)O)C(=O)N[C@@H](CCC(N)=O)C(=O)N[C@@H](C)C(=O)N[C@@H](CCC(=O)O)C(=O)N[C@H](C(=O)N[C@@H](CC(N)=O)C(=O)N[C@@H](C)C(=O)N[C@@H](CCC(N)=O)C(=O)N[C@H](C(=O)N[C@@H](CC(C)C)C(=O)N[C@@H](C)C(=O)N[C@@H](CCC(N)=O)C(=O)N[C@H](C(N)=O)C(C)C)[C@@H](C)CC)[C@@H](C)O)[C@@H](C)CC)[C@@H](C)CC)C(C)C)C(C)C [compound 113] (H-[NMeI]VLSLD[dV]PIKLK([AEEA-AEEA-γGlu-C18 diacid])KILLEQEKQKKQREQAETNAQILAQV-NH2),"Systolic blood pressure (Mean) % change from baseline, 8 h",[1],−31%
same,"Systolic blood pressure (Mean) % change from baseline, 12 h",[1],−24%
same,"Systolic blood pressure (Mean) % change from baseline, 24 h",[1],−7%
same,Duration of action,[1],>24 h
same,EC50,[2],0.35 nM
same,Emax (% I),[3],6 % I
same,EC50,[3],> 250 nM
same,Buffer stability pH 4.5 % purity loss,[4],0%
same,Buffer stability pH 7.4 % purity loss,[4],14.7%
